The values that follow come from article PMC12260505, “First-in-Human Phase I/IIa Study of the First-in-Class CDK2/4/6 Inhibitor PF-06873600 Alone or with Endocrine Therapy in Patients with Breast Cancer” (Clinical Cancer Research, 2025).

One data set addresses CDK1. Details: method as in PMID 34110834. Particulars: cited from earlier work.
Data set [1] in a line: Dose-limiting toxicities in dose escalation (modified toxicity probability interval method). Type of data set: in vivo, human. How it is done:
Part 1 included adult patients with HR^+/HER2^− advanced breast cancer or mBC (third- or fourth-line setting), locally recurrent/advanced or metastatic TNBC, or advanced platinum-resistant epithelial ovarian cancer/fallopian tube cancer/primary peritoneal cancer who received oral PF-06873600 at doses of 1 to 50 mg twice daily or oral PF-06873600 plus ET (letrozole or fulvestrant). Primary endpoints for part 1 dose escalation determined safety and tolerability to define dose-limiting toxicities (DLT), estimate the maximum tolerated dose, and select the recommended dose for expansion (RDE). Safety endpoints included adverse events (AE) characterized by type, frequency, severity [as graded by NCI Common Terminology Criteria for Adverse Events (CTCAE) version 4.03], timing, seriousness, and relationship to study therapy. Laboratory abnormalities were characterized by type, frequency, severity (as graded by NCI CTCAE version 4.03), timing, vital sign abnormalities, and heart rate–corrected QT interval (e.g., QTcF). Secondary endpoints included PK, preliminary antitumor activity as assessed using RECIST version 1.1, time-to-event endpoints including objective response rate (ORR), duration of response (DoR), progression-free survival (PFS), time to progression (TTP), and modulation of tumor CDK biomarkers [phosphorylated Rb (pRb), Ki67]. Exploratory endpoints included molecular profiling of tumor and ctDNA and the relationship to clinical outcome.
In part 1A, dose escalation monotherapy, patients received escalating doses of a single-agent immediate release (IR) formulation of PF-06873600, 1 to 50 mg twice daily orally on a continuous basis, with dose escalation following the modified toxicity probability interval method. Seven dose levels were evaluated: 1, 2, 5, 10, 25, 35, and 50 mg. An alternative intermittent dosing regimen (5 days on/2 days off) was also explored at 35 mg twice daily. Part 1B combination dose-finding involved PF-06873600 IR 25 mg twice daily with ET (letrozole or fulvestrant, each administered per standard of care). Letrozole was administered orally once daily together with PF-06873600. No dose adjustment for letrozole was permitted, but dosing interruptions were allowed. Fulvestrant 500 mg was administered intramuscularly on cycle 1 day 1 and day 15, cycle 2 day 1, and then monthly thereafter (±3 days) to accommodate dosing on day 1 of each cycle. No dose adjustment for fulvestrant was permitted. Part 1C evaluated two modified release (MR) formulations of PF-06873600: one in the single-dose setting and the other in the twice-daily setting. A cycle was defined as 28 days, regardless of missed doses or dose delays.
DLT was the primary endpoint of the study, summarized by dose level using the per-protocol analysis set for patients in the dose escalation portion of the study. Efficacy analysis was summarized by dose cohorts for part 2 of the study. For part 1, no formal efficacy analysis was presented. For part 2, tumor response was presented in the form of patient data listings that included, but were not limited to, tumor type, starting dose, tumor response at each visit, and best overall response. In addition, progression date, death date, date of first response, last tumor assessment date, and date of last contact were listed. ORR, PFS, overall survival, TTP, and DoR were summarized and presented as data permitted. For response-based metrics (best overall response, ORR, and DoR), analyses were presented on the basis of confirmed responses. Analyses of PFS and TTP were defined as the time from the date of the first dose. Summaries of the number and percentage of patients with PFS and TTP and data listings by tumor type and dose were generated based on data availability. The 95% confidence intervals (CI) for medians and quartiles were generated based on the Brookmeyer–Crowley method, whereas CIs for the estimated probability of an event at a particular time point were generated using the Greenwood formula. […]

[2] abbreviates: part 1A 35 mg twice daily, N = 2, DLT-evaluable set.
Where [3] appears, read: part 1A 50 mg twice daily, N = 8, DLT-evaluable set.

What is called Ki is a dissociation constant, usually derived from enzyme kinetics or from competition with a known ligand.

Turning to `C[C@@]1(O)CCC[C@H]1n1c(=O)c(C(F)F)cc2cnc(NC3CCN(S(C)(=O)=O)CC3)nc21` [PF-06873600], at CDK1, the inhibition constant (Ki) was 4.5 nM. The “DLTs at the monotherapy RDE” value in data set [1] (25 mg twice daily, single-agent or combination groups) is on record as “No DLTs”. Moreover, in data set [1] (setting [2]), the “DLT, Cardiac arrest” value was 0 n (%); the “DLT, Colitis” value is 0 n (%); the “DLT, Fatigue” value is on record as 0 n (%); the “DLT, Febrile neutropenia” value is given as 0 n (%). In addition, in data set [1] (setting [2]), the “DLT, Multiple organ dysfunction syndrome” value was 0 n (%); the “DLT, Neutrophil count decreased” value is 2 (100.0) n (%); the “DLT, Platelet count decreased” value is recorded as 1 (50.0) n (%); the “DLT, Thrombocytopenia” value is 0 n (%). In data set [1] (setting [2]), the “Patients with any DLTs” value is given as 2 (100.0) n (%). In data set [1] (setting [3]), the “DLT, Cardiac arrest” value is 1 (12.5) n (%); the “DLT, Colitis” value is reported as 1 (12.5) n (%); the “DLT, Fatigue” value is reported as 1 (12.5) n (%); the “DLT, Febrile neutropenia” value was 3 (37.5) n (%). Moreover, in data set [1] (setting [3]), the “DLT, Multiple organ dysfunction syndrome” value is 1 (12.5) n (%); the “DLT, Neutrophil count decreased” value is 0 n (%); the “DLT, Platelet count decreased” value is reported as 0 n (%); the “DLT, Thrombocytopenia” value is reported as 1 (12.5) n (%). Further, the “Patients with any DLTs” value in data set [1] (setting [3]) is reported as 4 (50.0) n (%). Also, in data set [1] (part 1A, 42 patients evaluable for DLT), the “Patients with DLTs (all treatment-related)” value is 14.3%. Also, in data set [1] (single-agent and combination dosing groups), the “Recommended dose for expansion (RDE)” value amounted to 25 mg twice daily.
